Data taken from patent US11427548B2 (Arvinas Operations, Inc., priority 2015, dated 2022).
Like-named read-outs stand apart in the source and are kept apart here.

Molecular target: T1, Androgen Receptor (Homo sapiens, UniProt P10275)
T1 construct: endogenous in cells; host or cells: VCaP cells
T1 sequence (P10275 1-920): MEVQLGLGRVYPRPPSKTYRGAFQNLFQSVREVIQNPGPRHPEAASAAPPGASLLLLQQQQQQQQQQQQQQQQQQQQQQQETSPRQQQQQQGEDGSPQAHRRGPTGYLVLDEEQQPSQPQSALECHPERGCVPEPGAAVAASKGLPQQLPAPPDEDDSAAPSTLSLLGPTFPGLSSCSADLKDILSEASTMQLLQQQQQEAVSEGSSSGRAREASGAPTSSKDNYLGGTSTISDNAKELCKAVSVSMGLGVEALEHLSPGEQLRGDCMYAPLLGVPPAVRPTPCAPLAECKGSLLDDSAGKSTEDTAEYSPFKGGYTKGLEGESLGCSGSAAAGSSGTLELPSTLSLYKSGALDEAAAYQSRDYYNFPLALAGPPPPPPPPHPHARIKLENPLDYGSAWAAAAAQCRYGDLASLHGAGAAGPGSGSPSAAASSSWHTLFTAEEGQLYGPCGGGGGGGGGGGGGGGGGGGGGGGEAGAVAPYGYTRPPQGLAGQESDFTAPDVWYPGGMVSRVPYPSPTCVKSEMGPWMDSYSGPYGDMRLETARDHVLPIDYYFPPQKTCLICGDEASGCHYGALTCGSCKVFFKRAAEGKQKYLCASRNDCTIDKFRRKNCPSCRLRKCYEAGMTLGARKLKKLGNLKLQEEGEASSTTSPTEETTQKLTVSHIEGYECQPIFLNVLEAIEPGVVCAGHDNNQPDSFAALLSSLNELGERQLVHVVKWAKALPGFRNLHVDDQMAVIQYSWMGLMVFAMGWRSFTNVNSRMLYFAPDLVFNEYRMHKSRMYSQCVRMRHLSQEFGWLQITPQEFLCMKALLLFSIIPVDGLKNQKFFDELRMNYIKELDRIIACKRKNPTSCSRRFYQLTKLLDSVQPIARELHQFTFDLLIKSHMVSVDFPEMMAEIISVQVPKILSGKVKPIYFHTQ
Test: Androgen Receptor ELISA assay (PathScan AR ELISA) in VCaP cells: AR degradation, Dmax and DC50
Assay type: cell-based
Method in brief: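 After 24 h exposure of VCaP cells (charcoal-stripped serum, 0.1 nM R1881 agonist, 0.1% DMSO) to seven half-log compound concentrations, residual AR in lysates was measured by PathScan ELISA (TMB absorbance, 450 nm). Cells were plated at 30,000/well and grown at least 3 days beforehand.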

[1] = VCaP cells; Table 36; read-out: VCaP DC50
[2] = VCaP, VCaP cells; Table 36; read-out: VCaP Dmax (%)

| DC50 [1] | Dmax [2] | Compound | other results |
| --- | --- | --- | --- |
| > 501 nM | – | Cc1ncsc1-c1ccc([C@H](C)NC(=O)[C@@H]2C[C@@H](O)CN2C(=O)[C@@H](C(C)C)n2cc(-c3ccnc(OC4CN(c5ncc(C(=O)NC6C(C)(C)C(Oc7ccc(C#N)c(Cl)c7)C6(C)C)cn5)C4)c3)cn2)cc1 (stereo partly drawn) [Example 603, N-(3-(3-chloro-4-cyanophenoxy)-2,2,4,4-tetramethylcyclobutyl)-2-(3-((4-(1-((R)-1-((2S,4R)-4-hydroxy-2-(((S)-1-(4-(4-methylthiazol-5-yl)phenyl)ethyl)carbam-oyl)pyrrolidin-1-yl)-3-methyl-1-oxobutan-2-yl)-1H-pyrazol-4-yl)pyridin-2-yl)oxy)azetidin-1-yl)pyrimidine-5-carboxamide] | Dmax (VCaP, read-out: VCaP Dmax (%), VCaP cells; Table 36): < 25% |
| < 50 nM | > 71% | Cc1ncsc1-c1ccc([C@H](CO)NC(=O)[C@@H]2C[C@@H](O)CN2C(=O)[C@@H](NC(=O)CN2CCN(CCCc3ccc(C(=O)N[C@H]4C(C)(C)[C@H](Oc5ccc(C#N)c(Cl)c5)C4(C)C)cc3)CC2)C(C)(C)C)cc1 [Example 820, (2S,4R)-1-((S)-2-(2-(4-(3-(4-(((1r,3r)-3-(3-chloro-4-cyanophenoxy)-2,2,4,4-tetramethylcyclobutyl)carbamoyl)phenyl)propyl)piperazin-1-yl)acetamido)-3,3-dimethylbutanoyl)-4-hydroxy-N-((R)-2-hydroxy-1-(4-(4-methylthiazol-5-yl)phenyl)ethyl) pyrrolidine-2-carboxamide] | – |
| > 501 nM | 26 to 50% | CC(C)(C)[C@H](NC(=O)COCCN1CCN(c2ccc(C(=O)N[C@H]3C(C)(C)[C@H](Oc4ccc(C#N)c(Cl)c4)C3(C)C)cn2)CC1)C(=O)N1C[C@H](O)C[C@H]1C(=O)NCc1ccc(C2CC2)cc1 [Example 757, N-((1r,3r)-3-(3-chloro-4-cyanophenoxy)-2,2,4,4-tetramethylcyclobutyl)-6-(4-(2-(2-(((S)-1-((2S,4R)-2-((4-cyclopropylbenzyl)car-bamoyl)-4-hydroxypyrrolidin-1-yl)-3,3-dimethyl-1-oxobutan-2-yl)amino)-2-oxoethoxy)ethyl)pipera-zin-1-yl)nicotinamide] | – |
| – | – | Cc1ncsc1-c1ccc([C@H](C)NC(=O)[C@@H]2C[C@@H](O)CN2C(=O)[C@@H](NC(=O)COCCCCOc2ccc(-c3ccc(N4C(=S)N(c5cnc(C#N)c(C(F)(F)F)c5)C(=O)C4(C)C)c(F)c3)cc2)C(C)(C)C)cc1 [Example 196, (2S,4R)-1-[(2S)-2-(2-{4-[4-(4-{3-[6-cyano-5-(trifluoromethyl)pyridin-3-yl]-5,5-dimethyl-4-oxo-2-sulfanylideneimidazolidin-1-yl}-3-fluorophenyl)phenoxy]butoxy}acetamido)-3,3-dimethylbutanoyl]-4-hydroxy-N-[(1S)-1-[4-(4-methyl-1,3-thiazol-5-yl)phenyl]ethyl]pyrrolidine-2-carboxamide] | DC50 (VCaP cells; concentration that caused 50% Androgen Receptor degradation; read-out: VCaP DC50): < 50 nM; Dmax (VCaP, VCaP cells; highest percentage of Androgen Receptor degradation; read-out: VCaP Dmax (%)): > 71% |
| – | – | Cc1ncsc1-c1ccc(CNC(=O)[C@@H]2C[C@@H](O)CN2C(=O)[C@@H](NC(=O)COCCCCCNc2ccc(C(=O)N[C@H]3C(C)(C)[C@H](Oc4ccc(C#N)c(Cl)c4)C3(C)C)cc2F)C(C)(C)C)cc1 [Example 176, (2S,4R)-1-[(2S)-2-[2-({5-[(2-fluoro-4-{[trans-3-(3-chloro-4-cyanophenoxy)-2,2,4,4-tetramethylcyclobutyl]carbamoyl}phenyl)amino]pentyl}oxy)acetamido]-3,3-dimethylbutanoyl]-4-hydroxy-N-{[4-(4-methyl-1,3-thiazol-5-yl)phenyl]methyl} pyrrolidine-2-carboxamide] | Dmax (VCaP, highest percentage of Androgen Receptor degradation observed, VCaP cells (Table 32); read-out: VCaP Dmax (%)): > 71%; DC50 (concentration that caused 50% Androgen Receptor degradation, VCaP cells (Table 32); read-out: VCaP DC50): < 50 nM |
| – | – | Cc1ncsc1-c1ccc([C@H](C)NC(=O)[C@@H]2C[C@@H](O)CN2C(=O)[C@@H](NC(=O)CN2CCO[C@H](CN3CCO[C@@H](COc4ccc(N5C(=S)N(c6ccc(C#N)c(C(F)(F)F)c6)C(=O)C5(C)C)cc4)C3)C2)C(C)(C)C)cc1 [Example 622, (2S,4R)-1-((S)-2-(2-((R)-2-(((R)-2-((4-(3-(4-cyano-3-(trifluoromethyl)phenyl)-5,5-dimethyl-4-oxo-2-thioxoimidazolidin-1-yl)phenoxy)methyl)mor-pholino)methyl)mor-pholino)acetamido)-3,3-dimethylbutanoyl)-4-hydroxy-N-((S)-1-(4-(4-methylthiazol-5-yl)phenyl)ethyl)pyrrolidine-2-carboxamide] | Dmax (VCaP, read-out: VCaP Dmax (%)): < 25%; DC50 (read-out: VCaP DC50; VCaP cells; Table 36): > 501 nM |
| > 501 nM | < 25% | CC(C)C[C@H](OCCN1CCN(c2ccc(C(=O)N[C@H]3C(C)(C)[C@H](Oc4ccc(C#N)c(Cl)c4)C3(C)C)cn2)CC1)C(=O)N[C@H](C(=O)N1C[C@H](O)C[C@H]1C(=O)NCc1ccc(Cl)cc1)C(C)(C)C [Example 727, N-((1r,3r)-3-(3-chloro-4-cyanophenoxy)-2,2,4,4-tetramethylcyclobutyl)-6-(4-(2-(((S)-1-(((S)-1-((2S,4R)-2-((4-chlorobenzyl)carbamoyl)-4-hydroxypyrrolidin-1-yl)-3,3-dimethyl-1-oxobutan-2-yl)amino)-4-methyl-1-oxopentan-2-yl)oxy)ethyl)piperazin-1-yl)nicotinamide] | – |
| < 50 nM | 51 to 70% | Cc1ncsc1-c1ccc([C@H](C)NC(=O)[C@@H]2C[C@@H](O)CN2C(=O)[C@@H](NC(=O)COCCN2CCN(c3ccc(C(=O)N[C@H]4C(C)(C)[C@H](Oc5ccc(C#N)c(C(F)(F)F)c5)C4(C)C)nn3)CC2)C(C)(C)C)cc1 [Example 684, N-((1r,3r)-3-(4-cyano-3-(trifluoromethyl)phenoxy)-2,2,4,4-tetramethylcyclobutyl)-6-(4-(2-(2-(((S)-1-((2S,4R)-4-hydroxy-2-(((S)-1-(4-(4-methylthiazol-5-yl)phenyl)ethyl)carbam-oyl)pyrrolidin-1-yl)-3,3-dimethyl-1-oxobutan-2-yl)amino)-2-oxoethoxy)ethyl)pipera-zin-1-yl)pyridazine-3-carboxamide] | – |
| – | – | CC(C)(C)[C@H](NC(=O)COCCCCCNc1ccc(C(=O)N[C@H]2C(C)(C)[C@H](Oc3ccc(C#N)c(Cl)c3)C2(C)C)cc1)C(=O)N1C[C@H](O)C[C@H]1C(=O)NCc1ccc(C#N)cc1 [Example 542] | DC50 (VCaP cells; Table 35; read-out: VCaP DC50): < 50 nM; Dmax (VCaP, VCaP cells; Table 35; read-out: VCaP Dmax (%)): > 71% |
| < 50 nM | 26 to 50% | Cc1ncsc1-c1ccc([C@H](C)NC(=O)[C@@H]2C[C@@H](O)CN2C(=O)[C@@H](NC(=O)CC2(CN3CCN(c4ccc(C(=O)N[C@H]5C(C)(C)[C@H](Oc6ccc(C#N)c(Cl)c6)C5(C)C)cn4)CC3)COC2)C(C)(C)C)cc1 [Example 851, N-((1r,3r)-3-(3-chloro-4-cyanophenoxy)-2,2,4,4-tetramethylcyclobutyl)-6-(4-((3-(2-(((S)-1-((2S,4R)-4-hydroxy-2-(((S)-1-(4-(4-methylthiazol-5-yl)phenyl)ethyl)carbamoyl)pyrrolidin-1-yl)-3,3-dimethyl-1-oxobutan-2-yl)amino)-2-oxoethyl)oxetan-3-yl)methyl)piperazin-1-yl)nicotinamide] | – |
| – | – | Cc1ncoc1-c1ccc([C@H](C)NC(=O)[C@@H]2C[C@@H](O)CN2C(=O)[C@@H](NC(=O)COCCCCOc2ccc(-c3ccc(N4C(=S)N(c5ccc(C#N)c(C(F)(F)F)c5)C(=O)C4(C)C)cc3)cc2)C(C)(C)C)cc1 [Example 101, (2S,4R)-1-[(2S)-2-(2-{4-[4-(4-{3-[4-cyano-3-(trifluoromethyl)phenyl]-5,5-dimethyl-4-oxo-2-sulfanylideneimidazolidin-1-yl}phenyl)phenoxy]butoxy}acetamido)-3,3-dimethylbutanoyl]-4-hydroxy-N-[(1S)-1-[4-(4-methyl-1,3-oxazol-5-l)phenyl]ethyl]pyrrolidine-2-carboxamide] | Dmax (VCaP, read-out: VCaP Dmax (%)): > 71%; DC50 (read-out: VCaP DC50; concentration that caused 50% Androgen Receptor degradation, VCaP cells (Table 32)): < 50 nM |
